Laboratory results from US20230374034A1, “NOVEL BICYCLIC COMPOUNDS” (PRISM BIOLAB CO., LTD., priority 2020, published 2023).

System: NICD (Notch intracellular domain) CSL-bla reporter in HeLa cells
Assay: Notch assay (CellSensor T-REx NICD CSL-bla HeLa beta-lactamase reporter; Method 1 / Method 2)
Assay type: cell-based
Settings: Homo sapiens, 10 μM compound, Method 1 (10× compound prepared in assay medium, added to plated cells), read-out: inhibiton (%) at 10 μM
Method in brief: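 HeLa cells carrying doxycycline-inducible NICD and a CSL-driven beta-lactamase reporter, 10^3 cells/well, were treated with compound plus doxycycline for 16-20 h at 37 °C. CCF4-AM substrate was loaded for 4 h at room temperature; background-subtracted blue (460 nm)/green (530 nm) emission ratio taken per well.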

## CC(C)CCN1CC2N(C(=O)OCc3cccc4ccccc34)O[C@H](Cc3ccccc3)C(=O)N2[C@@H](Cc2ccc(O)cc2)C1=O (stereo partly drawn) [Compound I-16, (3R,6S)-naphthalen-1-ylmethyl 3-benzyl-6-(4-hydroxybenzyl)-8-isopentyl-4,7-dioxohexahydropyrazino[2,1-c][1,2,4]oxadiazine-1(6H)-carboxylate]
  inhibition at 10 µM: 79.8%
